“Also recorded” adds a separate entry of the source.
Key:
[1] = system: HL-60 cells (NADPH oxidase / respiratory burst); assay: O2- formation by DMSO-differentiated HL-60 cells, PMA-stimulated; type: cell-based; conditions: various concentrations
Description: HL-60 cells were maintained in stationary culture in RPMI 1640 medium (Gibco, Grand Island, NY) containing 10% fetal bovine serum at 37° C in an atmosphere of 95 air and 5% CO2. The cells (about 8×10^5 /ml) were differentiated into neutrophil-like cells by treatment with 1.3% DMSO for six days (Harris, et al., J. Leukocyte Biol. 37: 407-422 (1985)). The cells were treated with the indicated levels of compactin or lovastatin by addition of a 1,000-fold concentrated stock solution to the appropriate concentration on day 4 of differentiation. […] In studies of the protective effect of mevalonic acid, the compound was added as the mevalonolactone (Sigma Chemical Co., St. Louis, MO) at a concentration of 1 mM to the cell culture on days 4 to 6. […]
O2 --formation by HL-60 cells was assessed by the SOD-sensitive reduction of cytochrome c. […] Cytochrome c reduction at 550nm was continuously monitored and maximal rate and extent of the reaction calculated.

[2] = HL-60 cell viability by propidium iodide uptake (flow cytometry); conditions: human, hl-60 cells
Description: (§1) HL-60 cells were maintained in stationary culture in RPMI 1640 medium (Gibco, Grand Island, NY) containing 10% fetal bovine serum at 37° C in an atmosphere of 95 air and 5% CO2. The cells (about 8×10^5 /ml) were differentiated into neutrophil-like cells by treatment with 1.3% DMSO for six days (Harris, et al., J. Leukocyte Biol. 37: 407-422 (1985)). […] […] In studies of the protective effect of mevalonic acid, the compound was added as the mevalonolactone (Sigma Chemical Co., St. Louis, MO) at a concentration of 1 mM to the cell culture on days 4 to 6. Similarly, cholesterol was added in the form of LDL prepared according to the method of Curtiss and Edgington (Curtiss, et al., J. Biol. Chem. 257: 15213-15221 (1991)) at a final concentration of 50 μg/ml; ubiquinone (Sigma Chemical Co., St. Louis, MO) was added as Coenzyme Q-10 at a final concentration of 0.5 mM; and dolichol (Sigma Chemical Co., St. Louis, MO) was added as a dispersion in phosphatidylcholine at a final concentration of 0.5 mM (Cutts, et al., J. Cell Physiol. 139: 550-555 (1989)).
(§2) Cell viability was determined by uptake of propidium iodide (537-059; Calbiochem-Behring Corp., La Jolla, CA), detected from the emission fluorescence at 625/35 nm using a DM560 dichronic mirror (Krishan, J. Cell. Biol. 66: 188-192 (1975)). Expression of N-formyl peptide receptor was determined using fluorescein-labeled N-CHONle-Leu-Phe-Nle-Tyr-Lys (Molecular Probes, Inc., Eugene, OR) essentially by the method of Sklar and Finney (Sklar and Finney, Cytometry 3: 161-165 (1982)). Specificity of ligand binding was determined in the presence of 4 mM unlabeled T-boc peptide. CD14 expression was determined using monoclonal antibody 3C10 at a dilution of 1:1,000 (see Goyert and Ferrero, in Leucocyte Typing III: White Cell Differentiation Antigens, McMichael, ed., Oxford Univ. Press, NY, pp. 613-619 (1988)), with detection using a fluorescein-labeled secondary antibody. Flow cytometric analyses were performed on a FACSIV (registered trademark of Becton-Dickinson, San Jose, CA) equipped with a 2W argon laser (Coherent Inc., Palo Alto, collected in list mode and analyzed using the Consort 30 program (Becton-Dickinson, San Jose, CA) after collecting 10,000 events.

HL-60 cells = assay: as above
Description: as §1, §2

cytochrome b558 = assay: Cytochrome b558 levels in HL-60 cells by Western blot; type: cell-based; conditions: 10 μM compactin

Structure (SMILES): CC[C@H](C)C(=O)O[C@H]1CCC=C2C=C[C@H](C)[C@H](CC[C@@H]3C[C@@H](O)CC(=O)O3)[C@H]21 [compactin]
- inhibition of O2- formation in response to PMA [1]: loss in the ability of PMA to stimulate O2 --formation; also recorded: dose-dependent inhibition
- viability at 0.4 µM [2]: 100 ± 1.6%
- viability at 2 µM [2]: 95 ± 1.2%
- viability at 4 µM [2]: 97 ± 0.9%
- viability at 10 µM [2]: 96 ± 1.2%
- HL-60 cell viability (HL-60 cells; compactin treatment, concentrations of the studies): not affected
- cell viability when inhibitor added at day 1 of differentiation (HL-60 cells; higher concentrations of each drug): somewhat decreased
- expression of cytochrome b558 (cytochrome b558): normal

Reference: US5244916A, “Inhibition of respiratory burst using posttranslational modification inhibitors” (The Scripps Research Institute, priority 1992, dated 1993)
